Results as given in the supplement of paper PMC13207355.
Structures can show the parent of a compound that is named as a salt.

Legend:
Conditions in all cases: exposure time: 72 h
E34 [1] = patient-derived glioblastoma stem cells of proneural subtype; assay: phenotypic distance (Euclidean, principal components) from DMSO controls (arbitrary units); higher = stronger morphological change
E13 [2] = patient-derived glioblastoma stem cells of classical subtype; assay: as above
E31 [3] = patient-derived glioblastoma stem cells of proneural subtype; assay: as above
FT3469 [4] = normal neural stem cell line; assay: as above
E28 [5] = patient-derived glioblastoma stem cells of classical subtype; assay: as above
E57 [6] = patient-derived glioblastoma stem cells of mesenchymal subtype; assay: as above
E21 [7] = patient-derived glioblastoma stem cells of mesenchymal subtype; assay: as above
E34 [8] = assay: surviving fraction (nuclei count normalised to DMSO); higher = more cells surviving (less toxic)
E13 [9] = assay: as above
E31 [10] = assay: as above
FT3469 [11] = assay: as above
E28 [12] = assay: as above
E57 [13] = assay: as above
E21 [14] = assay: as above
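For phenotypic distance (Euclidean, principal components) from DMSO controls in this document: cell Painting imaging in 384-well plates, CellProfiler features reduced to at least 20 principal components, Euclidean distance versus same-plate DMSO vehicle wells (0.1% v/v), median over six images per well.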
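For surviving fraction (nuclei count normalised to DMSO) in this document: nuclei counted by high-content imaging of Hoechst-stained cells in laminin-coated 384-well plates, relative to 0.1% DMSO vehicle wells, with staurosporine as cell-death control.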

SMILES: CN1[C@@H]2CC[C@H]1CC(OC(=O)c1c[nH]c3ccccc13)C2 (stereo partly drawn) [3-Tropanyl-indole-3-carboxylate hydrochloride]
- phenotypic distance (E34 [1]; 4.1 nM): 1.09
- phenotypic distance (E34 [1]; 12.3 nM): 0.577
- phenotypic distance (E34 [1]; 37 nM): 0.765
- phenotypic distance (E34 [1]; 111.1 nM): 1.86
- phenotypic distance (E34 [1]; 333.3 nM): 0.741
- phenotypic distance (E34 [1]; 1000 nM): 1.59
- phenotypic distance (E34 [1]; 3000 nM): 1.13
- phenotypic distance (E13 [2]; 4.1 nM): 0.681
- phenotypic distance (E13 [2]; 12.3 nM): 1.03
- phenotypic distance (E13 [2]; 37 nM): 0.87
- phenotypic distance (E13 [2]; 111.1 nM): 0.726
- phenotypic distance (E13 [2]; 333.3 nM): 0.624
- phenotypic distance (E13 [2]; 1000 nM): 1.01
- phenotypic distance (E13 [2]; 3000 nM): 1.66
- phenotypic distance (E31 [3]; 4.1 nM): 0.406
- phenotypic distance (E31 [3]; 12.3 nM): 0.329
- phenotypic distance (E31 [3]; 37 nM): 0.778
- phenotypic distance (E31 [3]; 111.1 nM): 0.924
- phenotypic distance (E31 [3]; 333.3 nM): 1.07
- phenotypic distance (E31 [3]; 1000 nM): 0.762
- phenotypic distance (E31 [3]; 3000 nM): 0.758
- phenotypic distance (FT3469 [4]; 4.1 nM): 0.942
- phenotypic distance (FT3469 [4]; 12.3 nM): 0.464
- phenotypic distance (FT3469 [4]; 37 nM): 2.87
- phenotypic distance (FT3469 [4]; 111.1 nM): 0.576
- phenotypic distance (FT3469 [4]; 333.3 nM): 0.57
- phenotypic distance (FT3469 [4]; 1000 nM): 0.775
- phenotypic distance (FT3469 [4]; 3000 nM): 0.616
- phenotypic distance (E28 [5]; 4.1 nM): 1.03
- phenotypic distance (E28 [5]; 12.3 nM): 0.793
- phenotypic distance (E28 [5]; 37 nM): 0.737
- phenotypic distance (E28 [5]; 111.1 nM): 0.922
- phenotypic distance (E28 [5]; 333.3 nM): 0.691
- phenotypic distance (E28 [5]; 1000 nM): 0.845
- phenotypic distance (E28 [5]; 3000 nM): 1.24
- phenotypic distance (E57 [6]; 4.1 nM): 0.753
- phenotypic distance (E57 [6]; 12.3 nM): 0.699
- phenotypic distance (E57 [6]; 37 nM): 0.615
- phenotypic distance (E57 [6]; 111.1 nM): 0.914
- phenotypic distance (E57 [6]; 333.3 nM): 0.614
- phenotypic distance (E57 [6]; 1000 nM): 1.06
- phenotypic distance (E57 [6]; 3000 nM): 1.1
- phenotypic distance (E21 [7]; 4.1 nM): 0.866
- phenotypic distance (E21 [7]; 12.3 nM): 0.871
- phenotypic distance (E21 [7]; 37 nM): 0.74
- phenotypic distance (E21 [7]; 111.1 nM): 0.815
- phenotypic distance (E21 [7]; 333.3 nM): 0.781
- phenotypic distance (E21 [7]; 1000 nM): 0.853
- phenotypic distance (E21 [7]; 3000 nM): 1.33
- surviving fraction (E34 [8]; 4.1 nM): 0.923
- surviving fraction (E34 [8]; 12.3 nM): 0.963
- surviving fraction (E34 [8]; 37 nM): 1.2
- surviving fraction (E34 [8]; 111.1 nM): 0.942
- surviving fraction (E34 [8]; 333.3 nM): 0.904
- surviving fraction (E34 [8]; 1000 nM): 0.885
- surviving fraction (E34 [8]; 3000 nM): 0.9
- surviving fraction (E13 [9]; 4.1 nM): 1.02
- surviving fraction (E13 [9]; 12.3 nM): 0.939
- surviving fraction (E13 [9]; 37 nM): 0.913
- surviving fraction (E13 [9]; 111.1 nM): 0.975
- surviving fraction (E13 [9]; 333.3 nM): 0.828
- surviving fraction (E13 [9]; 1000 nM): 0.931
- surviving fraction (E13 [9]; 3000 nM): 0.699
- surviving fraction (E31 [10]; 4.1 nM): 0.893
- surviving fraction (E31 [10]; 12.3 nM): 0.975
- surviving fraction (E31 [10]; 37 nM): 0.905
- surviving fraction (E31 [10]; 111.1 nM): 0.978
- surviving fraction (E31 [10]; 333.3 nM): 1.17
- surviving fraction (E31 [10]; 1000 nM): 0.945
- surviving fraction (E31 [10]; 3000 nM): 0.906
- surviving fraction (FT3469 [11]; 4.1 nM): 1.11
- surviving fraction (FT3469 [11]; 12.3 nM): 0.924
- surviving fraction (FT3469 [11]; 37 nM): 1.07
- surviving fraction (FT3469 [11]; 111.1 nM): 1.06
- surviving fraction (FT3469 [11]; 333.3 nM): 0.843
- surviving fraction (FT3469 [11]; 1000 nM): 0.927
- surviving fraction (FT3469 [11]; 3000 nM): 0.855
- surviving fraction (E28 [12]; 4.1 nM): 1.25
- surviving fraction (E28 [12]; 12.3 nM): 0.858
- surviving fraction (E28 [12]; 37 nM): 1.06
- surviving fraction (E28 [12]; 111.1 nM): 0.728
- surviving fraction (E28 [12]; 333.3 nM): 0.943
- surviving fraction (E28 [12]; 1000 nM): 0.894
- surviving fraction (E28 [12]; 3000 nM): 0.734
- surviving fraction (E57 [13]; 4.1 nM): 0.904
- surviving fraction (E57 [13]; 12.3 nM): 0.959
- surviving fraction (E57 [13]; 37 nM): 1.02
- surviving fraction (E57 [13]; 111.1 nM): 1.02
- surviving fraction (E57 [13]; 333.3 nM): 1.02
- surviving fraction (E57 [13]; 1000 nM): 1.04
- surviving fraction (E57 [13]; 3000 nM): 0.94
- surviving fraction (E21 [14]; 4.1 nM): 0.945
- surviving fraction (E21 [14]; 12.3 nM): 0.965
- surviving fraction (E21 [14]; 37 nM): 0.912
- surviving fraction (E21 [14]; 111.1 nM): 1
- surviving fraction (E21 [14]; 333.3 nM): 0.935
- surviving fraction (E21 [14]; 1000 nM): 0.929
- surviving fraction (E21 [14]; 3000 nM): 0.821
